For the experiment, the system named is paradoxical MEK/ERK pathway activation in NRAS Q61K Sbcl2 melanoma cells. Put plainly: Vemurafenib induced paradoxical MEK/ERK activation, Western blotting. The class given is cell-based, human. The note with it: 1 μM, control peptide treated Sbcl2 cells. (Immunoblotting shows a protein as a band on a membrane.)

Consider one molecule from PMC6750704 (Journal of medicinal chemistry, 2019).

With `CCCS(=O)(=O)Nc1ccc(F)c(C(=O)c2c[nH]c3ncc(-c4ccc(Cl)cc4)cc23)c1F` [vemurafenib], the “effect on pMEK and pERK levels” value is “induces paradoxical MEK/ERK pathway activation”.
